34 compounds from patent US8143408B2, “N-(8-heteroaryltetrahydronaphtalene-2yl) or N-(5-heteroarylchromane-3-yl) carboxamide derivatives for the treatment of pain” (AstraZeneca AB, priority 2007, dated 2012) can be followed below.

The target in this assay is T1, Nav1.7 voltage-gated sodium channel (Homo sapiens, UniProt Q15858).
T1 construct: Gene(s) encoding the full-length protein of the voltage-gated sodium channel of interest are cloned and expressed; expressed in transfected cells
T1 sequence (Q15858 whole entry): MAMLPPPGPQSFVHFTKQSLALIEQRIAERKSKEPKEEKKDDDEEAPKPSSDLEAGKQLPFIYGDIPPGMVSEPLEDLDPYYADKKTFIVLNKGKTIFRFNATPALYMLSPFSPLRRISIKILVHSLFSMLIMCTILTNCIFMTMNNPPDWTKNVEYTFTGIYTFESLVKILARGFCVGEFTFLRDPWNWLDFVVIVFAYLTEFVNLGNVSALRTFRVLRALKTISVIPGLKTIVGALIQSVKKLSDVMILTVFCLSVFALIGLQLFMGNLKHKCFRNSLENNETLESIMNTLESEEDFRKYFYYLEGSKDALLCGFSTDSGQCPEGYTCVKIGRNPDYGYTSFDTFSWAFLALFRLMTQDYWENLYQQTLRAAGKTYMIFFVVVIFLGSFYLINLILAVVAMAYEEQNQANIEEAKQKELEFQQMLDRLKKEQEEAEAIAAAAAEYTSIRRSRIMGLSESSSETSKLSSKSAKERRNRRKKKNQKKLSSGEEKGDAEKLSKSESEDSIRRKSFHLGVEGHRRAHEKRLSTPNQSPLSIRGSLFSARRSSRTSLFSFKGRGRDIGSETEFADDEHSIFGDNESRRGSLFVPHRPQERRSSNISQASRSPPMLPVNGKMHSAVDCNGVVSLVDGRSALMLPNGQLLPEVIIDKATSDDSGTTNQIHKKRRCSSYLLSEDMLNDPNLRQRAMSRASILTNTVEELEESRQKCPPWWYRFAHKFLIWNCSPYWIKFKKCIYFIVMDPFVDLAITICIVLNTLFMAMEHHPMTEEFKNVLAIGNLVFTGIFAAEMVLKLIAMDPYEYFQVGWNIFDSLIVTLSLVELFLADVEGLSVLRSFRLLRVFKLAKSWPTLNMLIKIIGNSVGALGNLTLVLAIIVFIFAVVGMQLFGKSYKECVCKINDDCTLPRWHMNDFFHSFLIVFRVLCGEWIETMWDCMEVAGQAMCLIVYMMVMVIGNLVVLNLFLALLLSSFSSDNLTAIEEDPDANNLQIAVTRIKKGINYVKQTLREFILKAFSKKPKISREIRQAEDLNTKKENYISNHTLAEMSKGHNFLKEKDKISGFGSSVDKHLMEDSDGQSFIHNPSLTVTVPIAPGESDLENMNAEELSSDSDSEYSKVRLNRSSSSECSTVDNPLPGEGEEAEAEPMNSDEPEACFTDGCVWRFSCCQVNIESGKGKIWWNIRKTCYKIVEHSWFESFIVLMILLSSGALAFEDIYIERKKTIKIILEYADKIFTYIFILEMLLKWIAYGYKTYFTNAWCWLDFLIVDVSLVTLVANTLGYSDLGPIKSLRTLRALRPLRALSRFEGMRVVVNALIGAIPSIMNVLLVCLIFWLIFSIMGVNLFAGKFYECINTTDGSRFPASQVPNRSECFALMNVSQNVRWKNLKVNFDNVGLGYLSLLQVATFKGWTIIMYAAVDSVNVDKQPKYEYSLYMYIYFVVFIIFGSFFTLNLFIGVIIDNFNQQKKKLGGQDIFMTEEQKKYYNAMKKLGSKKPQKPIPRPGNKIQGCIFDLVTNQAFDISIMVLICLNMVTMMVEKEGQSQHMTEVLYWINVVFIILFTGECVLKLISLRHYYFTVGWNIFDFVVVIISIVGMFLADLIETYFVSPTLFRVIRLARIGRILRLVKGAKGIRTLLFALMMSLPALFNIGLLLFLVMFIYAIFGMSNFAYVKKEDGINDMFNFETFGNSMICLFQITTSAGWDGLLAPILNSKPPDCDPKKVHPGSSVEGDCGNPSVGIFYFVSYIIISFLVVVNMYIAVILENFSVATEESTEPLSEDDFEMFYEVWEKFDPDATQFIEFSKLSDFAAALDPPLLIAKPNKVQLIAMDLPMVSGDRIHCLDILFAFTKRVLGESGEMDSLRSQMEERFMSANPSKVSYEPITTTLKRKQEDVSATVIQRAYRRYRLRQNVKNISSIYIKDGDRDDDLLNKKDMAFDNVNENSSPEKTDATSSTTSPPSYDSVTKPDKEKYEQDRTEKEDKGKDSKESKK
As to the kind of experiment: Whole-cell voltage clamp electrophysiology assay. Conditions: cells stably expressing the voltage-gated sodium channel of interest. Type of assay: cell-based. The text has this: Gene(s) encoding the full-length protein of the voltage-gated sodium channel of interest are cloned and expressed under a suitable promoter in a suitable cell line, as well known in the art. […] Suitable screening assays are as follows.
Electrophysiological studies can be performed using automated patch-clamp electrophysiology platforms, like IonWorks HT, IonWorks Quattro, PatchXpress, QPatch or any other suitable platform. […] Suitable extracellular and intracellular buffer for such experiments are applied according to the instructions given by the manufacturer of the automated patch-clamp platforms. Cells that express the voltage-gated sodium channel protein of interest are exposed to drugs through the pipetting system integrated in the platforms. A suitable voltage stimulus protocol is used to activate the voltage-gated sodium channel proteins of interest through depolarisation from a defined holding potential.
Electrophysiological studies can also be performed using the whole cell configuration of the standard patch clamp technique. In this assay, cells that express the voltage-gated sodium channel protein of interest are exposed to the drugs by conventional microperfusion systems and a suitable voltage stimulus protocol is used to activate the voltage-gated sodium channels.
For `COc1cnc(C(=O)N[C@@H]2COc3cccc(-c4cccnc4)c3C2)cn1` [Example 44, 5-methoxy-N-[(3S)-5-pyridin-3-yl-3,4-dihydro-2H-chromen-3-yl]pyrazine-2-carboxamide], the IC50 (commonly the midpoint of a concentration-inhibition curve) was 631 nM.

The compound `O=C(N[C@@H]1COc2cccc(-c3cccnc3)c2C1)c1ccc2cccnc2n1` [Example 45, N-[(3S)-5-pyridin-3-yl-3,4-dihydro-2H-chromen-3-yl]-1,8-naphthyridine-2-carboxamide] gave a half-inhibitory concentration (IC50) of 1260 nM.

The compound `O=C(N[C@@H]1COc2cccc(-c3cccnc3)c2C1)c1ccc2ncccc2n1` [Example 46, N-[(3S)-5-pyridin-3-yl-3,4-dihydro-2H-chromen-3-yl]-1,5-naphthyridine-2-carboxamide] showed a half-maximal inhibitory concentration (IC50) of 3160 nM.

In turn, `COc1ccc(-c2cccc3c2C[C@H](NC(=O)c2cnc(OCCC(F)(F)F)cn2)CO3)cn1` [Example 48, N-[(3S)-5-(6-methoxypyridin-3-yl)-3,4-dihydro-2H-chromen-3-yl]-5-(3,3,3-trifluoropropoxy)pyrazine-2-carboxamide] showed an IC50 of 631 nM.

For `COc1ccc(-c2cccc3c2C[C@H](NC(=O)c2cnc(OC)cn2)CO3)cn1` [Example 49, 5-methoxy-N-[(3S)-5-(6-methoxypyridin-3-yl)-3,4-dihydro-2H-chromen-3-yl]pyrazine-2-carboxamide], it took 1260 nM to reach half-maximal inhibition (IC50).

`CC(C)Oc1ccc(C(=O)N[C@@H]2COc3cccc(-c4cccnc4)c3C2)cn1` [Example 50, 6-isopropoxy-N-[(3S)-5-pyridin-3-yl-3,4-dihydro-2H-chromen-3-yl]nicotinamide] gave an IC50 of 63.1 nM.

Compound `O=C(N[C@@H]1COc2cccc(-c3cccnc3)c2C1)c1ccc(OCCC(F)(F)F)nc1` [Example 51, N-[(3S)-5-pyridin-3-yl-3,4-dihydro-2H-chromen-3-yl]-6-(3,3,3-trifluoropropoxy)nicotinamide] gave an IC50 of 39.8 nM. Compared with the last compound, the IC50 is about 1.6-fold lower.

Compound `Cc1nn(CC(C)C)nc1C(=O)N[C@@H]1COc2cccc(-c3cccnc3)c2C1` [Example 52, 2-isobutyl-5-methyl-N-[(3S)-5-pyridin-3-yl-3,4-dihydro-2H-chromen-3-yl]-2H-1,2,3-triazole-4-carboxamide] showed an IC50 of 3980 nM.

Compound `CC(C)Oc1ccc(C(=O)N[C@@H]2COc3cccc(-c4cncnc4)c3C2)cn1` [Example 53, 6-isopropoxy-N-[(3S)-5-pyrimidin-5-yl-3,4-dihydro-2H-chromen-3-yl]nicotinamide] had an IC50 of 251 nM.

With `O=C(N[C@@H]1COc2cccc(-c3cncnc3)c2C1)c1ccc(OCCC(F)(F)F)nc1` [Example 54, N-[(3S)-5-pyrimidin-5-yl-3,4-dihydro-2H-chromen-3-yl]-6-(3,3,3-trifluoropropoxy)nicotinamide], the half-maximal inhibitory concentration (IC50) was 63.1 nM.

As for `COc1ncc(-c2cccc3c2C[C@H](NC(=O)c2ccc(OC(C)C)nc2)CO3)cn1` [Example 55, 6-isopropoxy-N-[(3S)-5-(2-methoxypyrimidin-5-yl)-3,4-dihydro-2H-chromen-3-yl]nicotinamide], inhibition was half-maximal at 316 nM (IC50).

For the compound `COc1cc(-c2cccc3c2C[C@H](NC(=O)c2ccc(OC(C)C)nc2)CO3)ccn1` [Example 58, 6-isopropoxy-N-[(3S)-5-(2-methoxypyridin-4-yl)-3,4-dihydro-2H-chromen-3-yl]nicotinamide], the half-inhibitory concentration (IC50) is 398 nM. This IC50 and that of the compound before are within 1.5-fold of each other.

In turn, `COc1cc(-c2cccc3c2C[C@H](NC(=O)c2ccc(OCCC(F)(F)F)nc2)CO3)ccn1` [Example 59, N-[(3S)-5-(2-methoxypyridin-4-yl)-3,4-dihydro-2H-chromen-3-yl]-6-(3,3,3-trifluoropropoxy)nicotinamide] gave an IC50 of 126 nM.

`Cc1ncc(-c2cccc3c2C[C@H](NC(=O)c2ccc(OC(C)C)nc2)CO3)cn1` [Example 60, 6-isopropoxy-N-[(3S)-5-(2-methylpyrimidin-5-yl)-3,4-dihydro-2H-chromen-3-yl]nicotinamide] showed an IC50 of 158 nM. This IC50 and that of the compound before are within 1.5-fold of each other.

`Cc1ncc(-c2cccc3c2C[C@H](NC(=O)c2ccc(OCCC(F)(F)F)nc2)CO3)cn1` [Example 61, N-[(3S)-5-(2-methylpyrimidin-5-yl)-3,4-dihydro-2H-chromen-3-yl]-6-(3,3,3-trifluoropropoxy)nicotinamide] gave a concentration for half-maximal inhibition (IC50) of 50.1 nM.

`CC(C)Oc1ccc(C(=O)N[C@@H]2COc3cccc(-c4ccnc(F)c4)c3C2)cn1` [Example 62, N-[(3S)-5-(2-fluoropyridin-4-yl)-3,4-dihydro-2H-chromen-3-yl]-6-isopropoxynicotinamide] gave an IC50 of 251 nM.

Take `O=C(N[C@@H]1COc2cccc(-c3ccnc(F)c3)c2C1)c1ccc(OCCC(F)(F)F)nc1` [Example 63, N-[(3S)-5-(2-fluoropyridin-4-yl)-3,4-dihydro-2H-chromen-3-yl]-6-(3,3,3-trifluoropropoxy)nicotinamide]: the half-inhibitory concentration (IC50) was 79.4 nM.

Compound `O=C(N[C@@H]1COc2cccc(-c3cccnc3)c2C1)c1ccc2ccccc2n1` [Example 65, N-[(3S)-5-pyridin-3-yl-3,4-dihydro-2H-chromen-3-yl]quinoline-2-carboxamide] showed an IC50 of 5010 nM.

`Cc1cnccc1-c1cccc2c1C[C@H](NC(=O)c1ccc(OC(C)C)nc1)CO2` [Example 66, 6-isopropoxy-N-[(3S)-5-(3-methylpyridin-4-yl)-3,4-dihydro-2H-chromen-3-yl]nicotinamide]: it took 158 nM to reach half-maximal inhibition (IC50).

As for `CC(C)Oc1ccc(C(=O)N[C@@H]2COc3cccc(-c4ccc(F)nc4)c3C2)cn1` [Example 67, N-[(3S)-5-(6-fluoropyridin-3-yl)-3,4-dihydro-2H-chromen-3-yl]-6-isopropoxynicotinamide], the IC50 is 501 nM.

Consider `Cc1cnccc1-c1cccc2c1C[C@H](NC(=O)c1ccc(OCCC(F)(F)F)nc1)CO2` [Example 68, N-[(3S)-5-(3-methylpyridin-4-yl)-3,4-dihydro-2H-chromen-3-yl]-6-(3,3,3-trifluoropropoxy)nicotinamide], for which half-maximal inhibition (IC50) required 100 nM. This IC50 is about 5-fold lower than that of the compound before.

`O=C(N[C@@H]1COc2cccc(-c3ccc(F)nc3)c2C1)c1ccc(OCCC(F)(F)F)nc1` [Example 69, N-[(3S)-5-(6-fluoropyridin-3-yl)-3,4-dihydro-2H-chromen-3-yl]-6-(3,3,3-trifluoropropoxy)nicotinamide] gave an IC50 of 79.4 nM.

`COc1ccc(-c2ccc(C(=O)N[C@@H]3COc4cccc(-c5ccncc5)c4C3)cn2)c(OC)c1` [Example 70, 6-(2,4-dimethoxyphenyl)-N-[(3S)-5-pyridin-4-yl-3,4-dihydro-2H-chromen-3-yl]nicotinamide]: the midpoint of inhibition, the IC50, lay at 1000 nM.

With `COc1ncccc1-c1cccc2c1C[C@H](NC(=O)c1ccc(OC(C)C)nc1)CO2` [Example 71, 6-isopropoxy-N-[(3S)-5-(2-methoxypyridin-3-yl)-3,4-dihydro-2H-chromen-3-yl]nicotinamide], the IC50 was 2000 nM.

In turn, `COc1ncccc1-c1cccc2c1C[C@H](NC(=O)c1ccc(OCCC(F)(F)F)nc1)CO2` [Example 72, N-[(3S)-5-(2-methoxypyridin-3-yl)-3,4-dihydro-2H-chromen-3-yl]-6-(3,3,3-trifluoropropoxy)nicotinamide] gave an IC50 of 501 nM.

Compound `COc1ncc(-c2cccc3c2C[C@@H](NC(=O)c2ccc(OC(C)C)nc2)CC3)cn1` [Example 73, 6-isopropoxy-N-[(2S)-8-(2-methoxypyrimidin-5-yl)-1,2,3,4-tetrahydronaphthalen-2-yl]nicotinamide] had an IC50 of 3980 nM.

In turn, `CC(C)Oc1ccc(C(=O)N[C@@H]2CCc3cccc(-c4cccnc4F)c3C2)cn1` [Example 74, N-[(2R)-8-(2-fluoropyridin-3-yl)-1,2,3,4-tetrahydronaphthalen-2-yl]-6-isopropoxynicotinamide] gave an IC50 of 251 nM.

The compound `O=C(N[C@@H]1CCc2cccc(-c3ccnnc3)c2C1)c1ccc(OCCC(F)(F)F)nc1` [Example 75, N-[(2R)-8-pyridazin-4-yl-1,2,3,4-tetrahydronaphthalen-2-yl]-6-(3,3,3-trifluoropropoxy)nicotinamide] had a half-inhibitory concentration (IC50) of 631 nM.

Compound `COc1ccc(-c2cccc3c2C[C@H](NC(=O)c2ccc(OC(C)C)nc2)CO3)cn1` [Example 76, 6-isopropoxy-N-[(3S)-5-(6-methoxypyridin-3-yl)-3,4-dihydro-2H-chromen-3-yl]nicotinamide] gave an IC50 of 398 nM. This IC50 lies about 1.6-fold lower than the previous one.

With `COc1ccc(-c2cccc3c2C[C@H](NC(=O)c2ccc(OCCC(F)(F)F)nc2)CO3)cn1` [Example 77, N-[(3S)-5-(6-methoxypyridin-3-yl)-3,4-dihydro-2H-chromen-3-yl]-6-(3,3,3-trifluoropropoxy)nicotinamide], the IC50 was 126 nM. This IC50 lies about 3.2-fold lower than the previous one.

`CC(C)Oc1ccc(C(=O)N[C@@H]2CCc3cccc(-c4ccnnc4)c3C2)cn1` [Example 78, 6-isopropoxy-N-[(2R)-8-pyridazin-4-yl-1,2,3,4-tetrahydronaphthalen-2-yl]nicotinamide]: the IC50 was 3160 nM. Compared with the last compound, the IC50 is about 25-fold higher.

For `COc1cnc(C(=O)N[C@@H]2COc3cccc(-c4cnc(OC)c(F)c4)c3C2)cn1` [Example 79, N-[(3S)-5-(5-fluoro-6-methoxypyridin-3-yl)-3,4-dihydro-2H-chromen-3-yl]-5-methoxypyrazine-2-carboxamide], inhibition was half-maximal at 1260 nM (IC50).

Turning to `O=C(N[C@@H]1COc2cccc(-c3ccnnc3)c2C1)c1ccc(OCC(F)(F)F)nc1` [Example 80, N-[(3S)-5-pyridazin-4-yl-3,4-dihydro-2H-chromen-3-yl]-6-(2,2,2-trifluoroethoxy)nicotinamide], the midpoint of inhibition, the IC50, lay at 2510 nM. Compared with the last compound, the IC50 is about 2-fold higher.

`O=C(N[C@@H]1COc2cccc(-c3ccnnc3)c2C1)c1ccc(OCCC(F)(F)F)nc1` [Example 81, N-[(3S)-5-pyridazin-4-yl-3,4-dihydro-2H-chromen-3-yl]-6-(3,3,3-trifluoropropoxy)nicotinamide]: half-maximal inhibition (IC50) required 398 nM.
